The results in this text go back to PubChem BioAssay AID330 (DTP/NCI, 2004).

Each structure is given as a SMILES string. Values joined by “and” are separate entries in the source; they are usually repeats but may differ in a detail not shown here. Equal entries are not always repeated. Toxic doses and inconclusive results are not listed.

The test system of the assay is P388 leukemia ip, CD2F1 mice, survival T/C. The assay is described as follows: NCI In Vivo Anticancer Drug Screen. Data for tumor model P388 Leukemia (intraperitoneal) in CD2F1 (CDF1) mice. To be noted: endpoint: median survival time, higher = longer survival. In a few lines: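 Mice carrying the transplanted tumor received test compound or vehicle. Survival was recorded in each group, and the value is the treated-group measurement divided by that of the vehicle-treated control group.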

Where [1] appears, read: dose: 12.5 mg/kg/injection, schedule: Q01DX009 (ip), vehicle: saline with Tween-80.
Setting [2] is: dose: 50.0 mg/kg/injection, schedule: Q01DX009 (ip), vehicle: saline.
[3] abbreviates: dose: 100.0 mg/kg/injection, schedule: Q01DX009 (ip), vehicle: saline.
Setting [4] is: dose: 200.0 mg/kg/injection, schedule: Q01DX009 (ip), vehicle: saline.
The mark [5] stands for this setting: dose: 50.0 mg/kg/injection, schedule: Q01DX005 (ip), vehicle: saline with Tween-80.
[6] abbreviates: dose: 100.0 mg/kg/injection, schedule: Q01DX005 (ip), vehicle: saline with Tween-80.
Where [7] appears, read: dose: 200.0 mg/kg/injection, schedule: Q01DX005 (ip), vehicle: saline with Tween-80.
Where [8] appears, read: dose: 100.0 mg/kg/injection, schedule: Q04DX002 (ip), vehicle: saline with Tween-80.
[9] abbreviates: dose: 200.0 mg/kg/injection, schedule: Q04DX002 (ip), vehicle: saline with Tween-80.

For `CCCCCCCCS(=O)(=O)OCCCCOS(=O)(=O)CCCCCCCC`, the T/C was 103 % of control (dose: 31.25 mg/kg/injection, schedule: Q01DX005 (ip), vehicle: Klucel (hydroxypropylcellulose) (HPC)); 103 % of control (dose: 62.5 mg/kg/injection, schedule: Q01DX005 (ip), vehicle: Klucel (hydroxypropylcellulose) (HPC)); 103 % of control (dose: 125.0 mg/kg/injection, schedule: Q01DX005 (ip), vehicle: Klucel (hydroxypropylcellulose) (HPC)).
In the case of `O=C(Oc1ccc(NC(=O)c2cc3c(cc2Br)OCO3)cc1)c1ccccc1`, the T/C (dose: 25.0 mg/kg/injection, schedule: Q01DX009 (ip), vehicle: other) is 104 % of control; the T/C (dose: 50.0 mg/kg/injection, schedule: Q01DX009 (ip), vehicle: other) was 103 % of control; the T/C (dose: 100.0 mg/kg/injection, schedule: Q01DX009 (ip), vehicle: other) is 89 % of control; the T/C (dose: 200.0 mg/kg/injection, schedule: Q01DX009 (ip), vehicle: other) was 97 % of control; the T/C (dose: 400.0 mg/kg/injection, schedule: Q01DX009 (ip), vehicle: other) was 95 % of control.
On to `CC1OC=CC(OC2OC(CO)C(O)C(O)C2O)C1O` (stereo not given), for which the T/C reads like this: (dose: 21.25 mg/kg/injection, schedule: Q01DX005 (ip), vehicle: saline) 109 % of control; (dose: 42.5 mg/kg/injection, schedule: Q01DX005 (ip), vehicle: saline) 116 % of control; (dose: 85.0 mg/kg/injection, schedule: Q01DX005 (ip), vehicle: saline) 108 % of control; (dose: 170.0 mg/kg/injection, schedule: Q01DX005 (ip), vehicle: saline) 101 % of control.
For `CCCC1CC[N-]CC1.CCCC1CC[N-]CC1.CCCC1CC[N-]CC1.CCCC1CC[N-]CC1.CS(C)=O.CS(C)=O.[Cl-].[Cl-].[Cl-].[Cl-].[Cl][Rh][Cl].[Rh+3]`, the T/C reads like this: (dose: 3.13 mg/kg/injection, schedule: Q01DX009 (ip), vehicle: saline) 117 % of control; under setting [1], 123 % of control.
As for `CC(C)(C)N1C(=O)NCC1(C)C`, the T/C runs as follows: under setting [2], 105 % of control; under setting [3], 100 % of control; under setting [4], 98 % of control.
As for `C=C1C(=O)O[C@@H]2/C=C(/C)C3=CC(=O)[C@@](C)(C[C@@H](OC(=O)C(C)CC)C12)O3` (stereo not given in full), the T/C (dose: 10.0 mg/kg/injection, schedule: Q01DX005 (ip), vehicle: Klucel (hydroxypropylcellulose) (HPC)) was 100 % of control; the T/C (dose: 20.0 mg/kg/injection, schedule: Q01DX005 (ip), vehicle: Klucel (hydroxypropylcellulose) (HPC)) is 102 % of control; the T/C (dose: 40.0 mg/kg/injection, schedule: Q01DX005 (ip), vehicle: Klucel (hydroxypropylcellulose) (HPC)) is 114 % of control; the T/C (dose: 80.0 mg/kg/injection, schedule: Q01DX005 (ip), vehicle: Klucel (hydroxypropylcellulose) (HPC)) was 108 % of control.
Take `CC1N(N2C(=O)CS(=O)(=O)C2C)C(=O)CS1(=O)=O` (stereo not given): the T/C runs as follows: under setting [5], 90 % of control; under setting [6], 95 % of control; under setting [7], 89 % of control.
For the compound `Cc1cc(Cl)ccc1OCC(C)OC(=O)NC(C)C` (stereo not given), the T/C runs as follows: (dose: 50.0 mg/kg/injection, schedule: Q01DX009 (ip), vehicle: Klucel (hydroxypropylcellulose) (HPC)) 106 % of control; (dose: 100.0 mg/kg/injection, schedule: Q01DX009 (ip), vehicle: Klucel (hydroxypropylcellulose) (HPC)) 97 % of control; (dose: 200.0 mg/kg/injection, schedule: Q01DX009 (ip), vehicle: Klucel (hydroxypropylcellulose) (HPC)) 101 % of control.
With `COc1cc(OC)c(OC)cc1/C=C\c1ccc2ccccc2[n+]1C`, the T/C runs as follows: (dose: 3.12 mg/kg/injection, schedule: Q01DX009 (ip), vehicle: saline with Tween-80) 105 % of control; (dose: 6.25 mg/kg/injection, schedule: Q01DX009 (ip), vehicle: saline with Tween-80) 110 % of control; under setting [1], 111 % of control and 122 % of control; (dose: 25.0 mg/kg/injection, schedule: Q01DX009 (ip), vehicle: saline with Tween-80) 123 % of control.
Regarding `Cn1cc(F)c(=O)n(C)c1=O`, the T/C is, setting by setting: (dose: 30.0 mg/kg/injection, schedule: Q04DX002 (ip), vehicle: saline) 96 % of control; (dose: 60.0 mg/kg/injection, schedule: Q04DX002 (ip), vehicle: saline) 100 % of control; (dose: 120.0 mg/kg/injection, schedule: Q04DX002 (ip), vehicle: saline) 98 % of control; (dose: 125.0 mg/kg/injection, schedule: Q04DX002 (ip), vehicle: saline) 96 % of control; (dose: 240.0 mg/kg/injection, schedule: Q04DX002 (ip), vehicle: saline) 99 % of control; (dose: 250.0 mg/kg/injection, schedule: Q04DX002 (ip), vehicle: saline) 105 % of control.
For the compound `COc1ccc(/C=C/C2=C(C(=O)O)CCCO2)cc1`, the T/C is 103 % of control under setting [8]; 100 % of control under setting [9]; 90 % of control (dose: 400.0 mg/kg/injection, schedule: Q04DX002 (ip), vehicle: saline with Tween-80).
As to `CC(C)c1ccc2c(c1)CCC1C(C)(CN)CCCC21C` (stereo not given), the T/C runs as follows: (dose: 50.0 mg/kg/injection, schedule: Q01DX005 (ip), vehicle: Klucel (hydroxypropylcellulose) (HPC)) 97 % of control; (dose: 100.0 mg/kg/injection, schedule: Q01DX005 (ip), vehicle: Klucel (hydroxypropylcellulose) (HPC)) 99 % of control.
For `C=C1C(=O)OC2/C=C(\C)C3OC3/C=C(/C(=O)OC)C(OC(C)=O)C(OC(=O)C(C)(O)C(C)OC(C)=O)C12` (stereo not given), the T/C runs as follows: (dose: 1.5 mg/kg/injection, schedule: Q01DX009 (ip), vehicle: Klucel (hydroxypropylcellulose) (HPC)) 114 % of control; (dose: 12.0 mg/kg/injection, schedule: Q01DX009 (ip), vehicle: Klucel (hydroxypropylcellulose) (HPC)) 106 % of control.
Turning to `CCC1(O)CC(O)c2c(O)c3c(c(O)c2C1C(=O)OC)C(=O)c1cccc(O)c1C3=O` (stereo not given), the T/C is, setting by setting: (dose: 60.0 mg/kg/injection, schedule: Q01DX005 (ip), vehicle: Klucel (hydroxypropylcellulose) (HPC)) 96 % of control; (dose: 120.0 mg/kg/injection, schedule: Q01DX005 (ip), vehicle: Klucel (hydroxypropylcellulose) (HPC)) 94 % of control; (dose: 240.0 mg/kg/injection, schedule: Q01DX005 (ip), vehicle: Klucel (hydroxypropylcellulose) (HPC)) 105 % of control.
Consider `CCCCCCC[CH2][Sn]([CH2]CCCCCCC)([S]CC(=O)OCCCC)[S]CC(=O)OCCCC`, for which the T/C was 99 % of control under setting [2]; 92 % of control and 95 % of control under setting [3]; 92 % of control and 94 % of control under setting [4].
On to `CC(=O)CC1C(=O)OC(C)(C)OC1=O`, for which the T/C is, setting by setting: under setting [5], 112 % of control; under setting [6], 106 % of control; under setting [7], 103 % of control.
Turning to `CCC1NN1C(C)C` (stereo not given), the T/C by setting is: (dose: 50.0 mg/kg/injection, schedule: Q04DX002 (ip), vehicle: saline with Tween-80) 100 % of control; under setting [8], 95 % of control; under setting [9], 107 % of control.
Consider `C[n+]1ccc(Nc2ccc(NC(=O)c3ccc(Nc4cc[n+](C)c5ccc(N)cc45)cc3)cc2)cc1`, for which the T/C (dose: 1.0 mg/kg/injection, schedule: Q04DX003 (ip), vehicle: Klucel (hydroxypropylcellulose) (HPC)) was 116 % of control; the T/C (dose: 2.0 mg/kg/injection, schedule: Q01DX005 (ip), vehicle: suspension in saline) is 187 % of control; the T/C (dose: 2.0 mg/kg/injection, schedule: Q04DX003 (ip), vehicle: Klucel (hydroxypropylcellulose) (HPC)) was 166 % of control; the T/C (dose: 2.88 mg/kg/injection, schedule: Q04DX003 (ip), vehicle: water) was 158 % of control; the T/C (dose: 4.0 mg/kg/injection, schedule: Q01DX005 (ip), vehicle: suspension in saline) is 239 % of control; the T/C (dose: 4.0 mg/kg/injection, schedule: Q04DX003 (ip), vehicle: Klucel (hydroxypropylcellulose) (HPC)) is 168 % of control. The T/C was 167 % of control (dose: 4.8 mg/kg/injection, schedule: Q04DX003 (ip), vehicle: water); 283 % of control (dose: 8.0 mg/kg/injection, schedule: Q01DX005 (ip), vehicle: suspension in saline); 237 % of control (dose: 8.0 mg/kg/injection, schedule: Q04DX003 (ip), vehicle: Klucel (hydroxypropylcellulose) (HPC)); 200 % of control (dose: 8.0 mg/kg/injection, schedule: Q04DX003 (ip), vehicle: water); 170 % of control (dose: 9.0 mg/kg/injection, schedule: Q04DX003 (ip), vehicle: water); 238 % of control (dose: 13.3 mg/kg/injection, schedule: Q04DX003 (ip), vehicle: water). The T/C reads like this: (dose: 16.0 mg/kg/injection, schedule: Q04DX003 (ip), vehicle: Klucel (hydroxypropylcellulose) (HPC)) 270 % of control; (dose: 32.0 mg/kg/injection, schedule: Q04DX003 (ip), vehicle: Klucel (hydroxypropylcellulose) (HPC)) 294 % of control.
